{
  "source": "patent US20240327459A1",
  "about": "“PEPTIDE FRAGMENTS FOR TREATMENT OF DIABETES” (Follicum AB, priority 2018, published 2024)",
  "tested_on": "INS-1 β-cells",
  "assay": "Insulin secretion from INS-1 cells, insulin ELISA (Examples 8-11, 20)",
  "assay_type": "cell-based, rat",
  "protocol": "Materials and methods: Rat INS-1 β-cells (passages 60-70) were cultured at 37° C. and 5% CO2 in cRPMI media (RPMI 1640 supplemented with 10% fetal bovine serum, 50 IU/mL penicillin, 50 mg/L streptomycin, 10 mM HEPES, 2 mM L-glutamine, 1 mM sodium pyruvate, and 50 μM beta-mercaptoethanol) unless otherwise stated. INS-1 cells were seeded in 96-well plates (2×10^3 cells/well) in cRPMI medium and following overnight incubation, the cells were washed in PBS before pre-incubation for 120 min at 37° C. in Krebs-Ringer bicarbonate buffer, pH 7.4, supplemented with 10 mM HEPES, 0.1% bovine serum albumin and 2.8 mM glucose. Following pre-incubation, the buffer was exchanged with fresh Krebs-Ringer buffer as described above and supplemented with specific glucose concentrations and peptides for the individual experiments as described below. Immediately after 60 minutes incubation at 37° C., an aliquot of the buffer was removed and frozen for subsequent insulin ELIZA assay.\nInsulin release from INS-1 cells were measured following exposure to increasing concentrations of FOL-014 and compared with the stimulatory effect of GLP-1 and untreated control during high glucose concentration (16.7 mM). […] At 6 nM or higher, FOL-014 triggered insulin release within the same range as 100 nM GLP-1. At concentrations ranging from 0.6-60 nM, insulin secretion increased in a linear fashion in relation to increasing FOL-014 concentrations.\nInsulin release from INS-1 cells was measured following exposure to 60 nM FOL-014 at increasing concentrations of glucose. In untreated control samples, elevated glucose concentrations increased the insulin secretion at 11.1 mM glucose or higher. […] (FIG. 6).\nInsulin secretion from INS-1 cells was measured following exposure to FOL-005, FOL-014, GLP-1 or combinations of those, expressed as percentage of untreated control. […] The experiments were performed in the presence of 16.7 mM glucose (FIG. 7).\nNovel peptide analogues, derived from either FOL-005 or FOL-014 were tested concerning their ability to induce insulin secretion in two separate INS-1 cell lines in the presence of 16.7 mM glucose. FOL-005, FOL-014 and GLP-1 as well as a high glucose (16.7 mM) and a low glucose (2.8 mM) control (not shown) was included in each experiment and the peptide concentration was 100 nM. In order to correct for the variance between experiments, all values were normalized to, and expressed as percentage of the average value of the high glucose control in the individual experiments. The analogues were subsequently ranked according to performance (FIGS. 11A and 11B).\nInsulin secretion from INS-1 cells was measured following exposure to FOL-056, GLP-1 or a combination of those, expressed as percentage of untreated control. […] The experiments were performed in the presence of 16.7 mM glucose (FIG. 15).",
  "note": "“Also recorded” adds a separate entry of the source.",
  "data": [
    {"sequence": "KPLAEIDSIELSYGIK (MISC_FEATURE - peptide, FOL-014)", "values": [
      {"measurement": "insulin secretion at increasing glucose concentrations", "setting": "60 nM peptide, glucose 5.5 mM or higher, vs untreated control cells", "result": "increased significantly in a glucose dependent fashion already from 5.5 mM glucose; also recorded: significantly higher"},
      {"measurement": "concentration range in which insulin secretion increased in a linear fashion", "setting": "16.7 mM glucose", "result": "0.6 to 60", "unit": "nM"},
      {"measurement": "concentration triggering insulin release within the same range as 100 nM GLP-1", "setting": "16.7 mM glucose", "result": "≥ 6", "unit": "nM"},
      {"measurement": "insulin release", "setting": "all concentrations tested, 16.7 mM glucose, vs untreated control", "result": "elicited significantly higher insulin release as compared with the untreated control; also recorded: significant increase in insulin secretion for all concentrations tested"},
      {"measurement": "insulin secretion", "setting": "concentrations ≥600 nM, 16.7 mM glucose", "result": "did not increase the insulin secretion; also recorded: less pronounced effect on insulin secretion"}
    ]}
  ]
}
